These results are taken from patent publication US20200016159A1, “N3-CYCLICALLY SUBSTITUTED THIENOURACILS AND USE THEREOF” (Bayer Aktiengesellschaft, priority 2016, published 2020).

For this assay, the target named is T1, human adenosine A2b receptor (Homo sapiens, UniProt P29275).
T1 sequence (P29275 1-332): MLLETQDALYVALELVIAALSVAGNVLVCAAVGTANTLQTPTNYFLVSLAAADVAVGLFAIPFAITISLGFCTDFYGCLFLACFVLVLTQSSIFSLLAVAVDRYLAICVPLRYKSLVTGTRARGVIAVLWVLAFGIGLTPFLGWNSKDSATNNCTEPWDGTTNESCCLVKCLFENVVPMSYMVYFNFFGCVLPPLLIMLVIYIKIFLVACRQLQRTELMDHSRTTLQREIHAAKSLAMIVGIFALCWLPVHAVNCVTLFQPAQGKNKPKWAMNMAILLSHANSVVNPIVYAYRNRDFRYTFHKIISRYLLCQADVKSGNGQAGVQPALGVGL
Nature of the assay: Cellular in vitro reporter gene test for A2b receptor activity (antagonism of NECA). The format is cell-based. Details: expressed in transfected cells; host or cells: CHO-K1 (Chinese hamster ovary) with CRE-luciferase reporter. The following applies: recombinant CHO-K1 cells, CRE-luciferase reporter, co-incubation with EC50 concentration of NECA, 3 hours. How it is done: The identification of selective antagonists of the human adenosine A2b receptor and the quantification of the efficacy and selectivity of the compounds according to the invention was carried out with the aid of recombinant cell lines for the human adenosine receptors A1, A2a, A2b and A3. These cell lines were originally derived from an ovarepithelial cell of the hamster (Chinese Hamster Ovary, CHO-K1, American Type Culture Collection, Manassas, Va. 20108, USA). In addition to the respective recombinantly expressed adenosine receptor for testing the efficacy at the A1, A2a and A2b receptors, the cell lines contain a reporter gene construct where expression of the firefly (Photinus pyralis) luciferase is under the control of a promoter which can be activated via intracellular signal cascades by stimulation of the receptors with the (not subtype-selective) adenosine receptor agonist NECA (5′-N-ethylcarboxamidoadenosine) [S. J. Hill, J. G. Baker, S. Rhees, Curr. Opin. Pharmacol. 1, 526-532 (2001)].
In the case of the A2a and A2b cell lines, this is a minimal promoter having a plurality of cAMP-responsive elements (CRE). Stimulation of the Gs-coupled A2b or A2a receptors by NECA ultimately leads, via formation of cAMP, to CRE-dependent induction of luciferase expression, which is detected 3 hours after the start of the incubation with NECA using a detection solution in a suitable luminometer. For testing the antagonists, initially, in a pre-experiment, the concentration of NECA which, at the test day in question, results in half-maximum stimulation of luciferase expression (EC50 concentration) is determined. By joint incubation of this EC50 concentration of NECA with the substances to be tested, it is possible to determine their antagonistic activity.
Table 1 below lists the IC50 values from the A2b receptor assay for individual working examples (in some cases as means of a plurality of independent individual determinations and rounded to two significant figures; it may also be the case here that various independent preparations of the respective working example have been used): […]
As to `Cc1c(Cn2nc[nH]c2=O)sc2c1c(=O)n(C1CC1)c(=O)n2CC1CCC1(F)F` (single isomer, unassigned; enantiomer 1) [Example 202, 3-Cyclopropyl-1-[(2,2-difluorocyclobutyl)methyl]-5-methyl-6-[(5-oxo-4,5-dihydro-1H-1,2,4-triazol-1-yl)methyl]thieno[2,3-d]pyrimidine-2,4(1H,3H)-dione (enantiomer 1)], the 50% inhibitory concentration (IC50) was found to be 140 nM.

On to `Cc1c(Cn2nc[nH]c2=O)sc2c1c(=O)n(C1CC1)c(=O)n2CC1CCC1` [Example 18, 1-(Cyclobutylmethyl)-3-cyclopropyl-5-methyl-6-[(5-oxo-4,5-dihydro-1H-1,2,4-triazol-1-yl)methyl]thieno[2,3-d]pyrimidine-2,4(1H,3H)-dione], for which the IC50 was 25 nM.

With `COC(=O)N=C1NCCN1Cc1sc2c(c1C)c(=O)n(C1(C)CC1)c(=O)n2CCC(F)(F)F` [Example 58, Methyl [1-{[5-methyl-3-(1-methylcyclopropyl)-2,4-dioxo-1-(3,3,3-trifluoropropyl)-1,2,3,4-tetrahydrothieno[2,3-d]pyrimidin-6-yl]methyl}imidazolidin-2-ylidene]carbamate], the IC50 was 10 nM.

Turning to `COC(=O)N=C1NCCN1Cc1sc2c(c1C)c(=O)n(C1COC1)c(=O)n2CCC(F)(F)F` [Example 132, Methyl [1-{[5-methyl-3-(oxetan-3-yl)-2,4-dioxo-1-(3,3,3-trifluoropropyl)-1,2,3,4-tetrahydrothieno[2,3-d]pyrimidin-6-yl]methyl}imidazolidin-2-ylidene]carbamate], the 50% inhibitory concentration (IC50) was found to be 11 nM.

For `Cc1c(Cn2nc[nH]c2=O)sc2c1c(=O)n(C1CC1C)c(=O)n2CCOC(F)(F)F` (single isomer, unassigned) [Example 278, 5-Methyl-3-(2-methylcyclopropyl)-6-[(5-oxo-4,5-dihydro-1H-1,2,4-triazol-1-yl)methyl]-1-[2-(trifluoromethoxy)ethyl]thieno[2,3-d]pyrimidine-2,4(1H,3H)-dione], the IC50 was determined as 1.6 nM.

Regarding `Cc1c(CN2CCNC2=O)sc2c1c(=O)n(C1CC1C)c(=O)n2CCC(F)(F)F` (single isomer, unassigned) [Example 241, 5-Methyl-3-(2-methylcyclopropyl)-6-[(2-oxoimidazolidin-1-yl)methyl]-1-(3,3,3-trifluoropropyl)thieno[2,3-d]pyrimidine-2,4(1H,3H)-dione], the half-maximal inhibitory concentration (IC50) was determined as 7.1 nM.

For the compound `COCCn1c(=O)n(C2(C(F)(F)F)CC2)c(=O)c2c(C)c(CN3CCNC3=NC(=O)OC)sc21` [Example 87, Methyl [1-({1-(2-methoxyethyl)-5-methyl-2,4-dioxo-3-[1-(trifluoromethyl)cyclopropyl]-1,2,3,4-tetrahydrothieno[2,3-d]pyrimidin-6-yl}methyl)imidazolidin-2-ylidene]carbamate], the half-inhibitory concentration (IC50) stood at 140 nM.

Regarding `Cc1c(CN2CCNC2=O)sc2c1c(=O)n(C1CC1C)c(=O)n2C` (racemic) [Example 221, 1,5-Dimethyl-3-(2-methylcyclopropyl)-6-[(2-oxoimidazolidin-1-yl)methyl]thieno[2,3-d]pyrimidine-2,4(1H,3H)-dione], the IC50 came out at 3.3 nM.

For `Cc1c(CN2CCNC2=O)sc2c1c(=O)n(C1CC1C)c(=O)n2CC1CC(F)(F)C1` (single isomer, unassigned) [Example 253, 1-[(3,3-Difluorocyclobutyl)methyl]-5-methyl-3-(2-methylcyclopropyl)-6-[(2-oxoimidazolidin-1-yl)methyl]thieno[2,3-d]pyrimidine-2,4(1H,3H)-dione], the concentration for half-maximal inhibition (IC50) amounted to 2.7 nM.

Consider `Cc1c(CN2CCNC2=O)sc2c1c(=O)n(C1CC1C)c(=O)n2C` (single isomer, unassigned) [Example 222, 1,5-Dimethyl-3-(2-methylcyclopropyl)-6-[(2-oxoimidazolidin-1-yl)methyl]thieno[2,3-d]pyrimidine-2,4(1H,3H)-dione], for which the 50% inhibitory concentration (IC50) worked out at 1.6 nM.

With `COC(=O)N=C1NCCN1Cc1sc2c(c1C)c(=O)n(C1CC1)c(=O)n2CC1CCCO1` (single isomer, unassigned) [Example 44, Methyl [1-{[3-cyclopropyl-5-methyl-2,4-dioxo-1-(tetrahydrofuran-2-ylmethyl)-1,2,3,4-tetrahydrothieno[2,3-d]pyrimidin-6-yl]methyl}imidazolidin-2-ylidene]carbamate], the IC50 amounted to 16 nM.

As to `COC(=O)N=C1NCCN1Cc1sc2c(c1C)c(=O)n(C1CC1C)c(=O)n2CCOC(F)(F)F` (single isomer, unassigned) [Example 268, Methyl [1-({5-methyl-3-(2-methylcyclopropyl)-2,4-dioxo-1-[2-(trifluoromethoxy)ethyl]-1,2,3,4-tetrahydrothieno[2,3-d]pyrimidin-6-yl}methyl)imidazolidin-2-ylidene]carbamate], the IC50 worked out at 1.5 nM.

With `CO[C@H]1C[C@H](n2c(=O)c3c(C)c(Cn4nc[nH]c4=O)sc3n(CCC(F)(F)F)c2=O)C1` [Example 148, 3-(trans-3-Methoxycyclobutyl)-5-methyl-6-[(5-oxo-4,5-dihydro-1H-1,2,4-triazol-1-yl)methyl]-1-(3,3,3-trifluoropropyl)thieno[2,3-d]pyrimidine-2,4(1H,3H)-dione], the half-inhibitory concentration (IC50) stood at 66 nM.

Take `CCC1CC1n1c(=O)c2c(C)c(CN3CCNC3=O)sc2n(CCOC)c1=O` (single isomer, unassigned) [Example 302, 3-(2-Ethylcyclopropyl)-1-(2-methoxyethyl)-5-methyl-6-[(2-oxoimidazolidin-1-yl)methyl]thieno[2,3-d]pyrimidine-2,4(1H,3H)-dione]: the IC50 is 10 nM.

For `Cc1c(CN2CCNC2=O)sc2c1c(=O)n(C1(C)CC1)c(=O)n2CCC(F)(F)F` [Example 56, 5-Methyl-3-(1-methylcyclopropyl)-6-[(2-oxoimidazolidin-1-yl)methyl]-1-(3,3,3-trifluoropropyl)thieno[2,3-d]pyrimidine-2,4(1H,3H)-dione], the IC50 came to 3.6 nM.

`CO[C@H]1C[C@H](n2c(=O)c3c(C)c(CN4CCNC4=NC#N)sc3n(CCC(F)(F)F)c2=O)C1` [Example 145, [1-{[3-(trans-3-Methoxycyclobutyl)-5-methyl-2,4-dioxo-1-(3,3,3-trifluoropropyl)-1,2,3,4-tetrahydrothieno[2,3-d]pyrimidin-6-yl]methyl}imidazolidin-2-ylidene]cyanamide]: the IC50 is 23 nM.

Regarding `COCCn1c(=O)n([C@H]2C[C@@H](OC)C2)c(=O)c2c(C)c(CN3CCNC3=NC(=O)OC)sc21` [Example 161, Methyl [1-{[3-(cis-3-methoxycyclobutyl)-1-(2-methoxyethyl)-5-methyl-2,4-dioxo-1,2,3,4-tetrahydrothieno[2,3-d]pyrimidin-6-yl]methyl}imidazolidin-2-ylidene]carbamate], the IC50 was determined as 130 nM.

`COCCn1c(=O)n(C2CC(C)(C)C2)c(=O)c2c(C)c(Cn3nc[nH]c3=O)sc21` [Example 173, 3-(3,3-Dimethylcyclobutyl)-1-(2-methoxyethyl)-5-methyl-6-[(5-oxo-4,5-dihydro-1H-1,2,4-triazol-1-yl)methyl]thieno[2,3-d]pyrimidine-2,4(1H,3H)-dione]: the 50% inhibitory concentration (IC50) worked out at 83 nM.

Regarding `COCCn1c(=O)n(C2CCC2)c(=O)c2c(C)c(CN3CCNC3=NC#N)sc21` [Example 116, [1-{[3-Cyclobutyl-1-(2-methoxyethyl)-5-methyl-2,4-dioxo-1,2,3,4-tetrahydrothieno[2,3-d]pyrimidin-6-yl]methyl}imidazolidin-2-ylidene]cyanamide], the 50% inhibitory concentration (IC50) was 4 nM.

In the case of `Cc1c(CN2CCNC2=O)sc2c1c(=O)n(C1(C)CCC1)c(=O)n2CCC(F)(F)F` [Example 134, 5-Methyl-3-(1-methylcyclobutyl)-6-[(2-oxoimidazolidin-1-yl)methyl]-1-(3,3,3-trifluoropropyl)thieno[2,3-d]pyrimidine-2,4(1H,3H)-dione], the IC50 is 34 nM.

For the compound `Cc1c(CN2CCNC2=O)sc2c1c(=O)n(C1(C)CC1)c(=O)n2C[C@@H]1CCCO1` [Example 82, 5-Methyl-3-(1-methylcyclopropyl)-6-[(2-oxoimidazolidin-1-yl)methyl]-1-[(2S)-tetrahydrofuran-2-ylmethyl]thieno[2,3-d]pyrimidine-2,4(1H,3H)-dione], the concentration for half-maximal inhibition (IC50) was 77 nM.
